Experimental data: US20250376497A1, “ARTIFICIAL PROTEIN AND USES THEREOF” (priority 2022, published 2025)
“And” between values parts separate entries of the source, which are not always exact repeats. Identical values can stand only once. “Also recorded” adds a separate entry of the source. Bridge positions count the residues as written; N and C are the ends. Ends that are not written are not given here.

Assays:
OR2 [1] = molecular target: T1, OR2 (Homo sapiens, UniProt O43614); set-up: host or cells: HEK-293T; conditions: Lang et al., 2004; cited from earlier work
T1 sequence (O43614 1-444): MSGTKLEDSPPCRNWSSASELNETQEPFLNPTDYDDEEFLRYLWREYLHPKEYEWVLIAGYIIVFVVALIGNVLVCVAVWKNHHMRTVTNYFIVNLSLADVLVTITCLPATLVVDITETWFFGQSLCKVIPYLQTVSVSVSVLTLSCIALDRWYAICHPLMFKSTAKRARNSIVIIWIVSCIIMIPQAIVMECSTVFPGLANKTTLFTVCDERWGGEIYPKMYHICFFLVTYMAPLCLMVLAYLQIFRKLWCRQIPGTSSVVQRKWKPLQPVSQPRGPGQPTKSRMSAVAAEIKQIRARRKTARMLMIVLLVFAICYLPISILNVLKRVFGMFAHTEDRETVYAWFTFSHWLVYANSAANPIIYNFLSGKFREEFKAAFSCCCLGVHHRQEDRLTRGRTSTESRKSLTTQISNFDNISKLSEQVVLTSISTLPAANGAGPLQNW

OR1 [2] = molecular target: T2, OR1 (Homo sapiens, UniProt O43613); set-up: host or cells: HEK-293T; conditions: Lang et al., 2004; cited from earlier work
T2 sequence (O43613 1-425): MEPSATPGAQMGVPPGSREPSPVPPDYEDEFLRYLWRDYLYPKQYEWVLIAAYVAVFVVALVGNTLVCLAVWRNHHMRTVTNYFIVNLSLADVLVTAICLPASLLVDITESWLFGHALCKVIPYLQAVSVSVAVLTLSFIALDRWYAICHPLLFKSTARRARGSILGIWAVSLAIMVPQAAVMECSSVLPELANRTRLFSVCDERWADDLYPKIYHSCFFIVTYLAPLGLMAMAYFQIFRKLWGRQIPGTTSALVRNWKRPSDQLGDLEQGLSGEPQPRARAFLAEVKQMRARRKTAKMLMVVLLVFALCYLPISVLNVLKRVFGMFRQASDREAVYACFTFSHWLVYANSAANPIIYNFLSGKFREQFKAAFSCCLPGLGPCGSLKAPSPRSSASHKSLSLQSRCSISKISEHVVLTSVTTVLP

[3] = system: control Neuro-2a cells that do not express such receptors (wild-type, WT); assay: Intracellular Ca2+ response in control wild-type Neuro-2a cells without OR1/OR2; type: cell-based, mouse; conditions: Neuro-2a cells without OR1 and OR2
Description: (§1) Selective expression of the OR1- or OR2-coding genes in the corresponding cell lines and the absence of expression of OR1 and OR2 in WT cells were confirmed by real-time PCR from RNA extracted from the individual DNAse-treated and back-transcribed cells (FIG. 3A). Responses in terms of intracellular [Ca^2+] were assessed in triplicate using Fluo-4 Direct Calcium Assay (Invitrogen) and a Tekan Spark microplate reader, normalizing the results obtained to the maximal responses.

OX-KO mice [4] = assay: Cataplexy-like episodes after subcutaneous injection in OX-KO mice; type: in vivo, mouse; conditions: SC single injection at ZT0, 160 μM in 1 mL saline; for total duration of cataplexy-like episodes during the dark period: vs vehicle
Excerpt: D-CLS: total duration of cataplectic-like episodes during the dark period. V: vehicle (saline). OX-D: OX-DRAGON. TAT: TAT peptide. […] […] The dots indicate values in individual mice.
Such episodes, identified as direct transitions from wakefulness to REM sleep (Scammell et al., 2009), during the dark period are 100% specific for cataplexy in mouse models of NT1 (Fujiki et al., 2009). Correspondence between such events on polysomnographic tracings and abrupt behavioural transitions to a state of immobility was confirmed based on synchronized video tracings in a subset of mice (n=4) during treatment with vehicle and with OX-DRAGON.

OX-KO mice [5] = assay: Wakefulness and sleep (EEG/EMG) after intracerebroventricular infusion in OX-KO mice; type: in vivo, mouse; conditions: ICV 160 μM at 5 μL/h, ZT0-6, vs vehicle (artificial cerebrospinal fluid)
Description: Wakefulness, non-REM sleep (NREM) and REM sleep are expressed as a percentage of the recording time. V: vehicle (artificial cerebrospinal fluid). OX-D: OX-DRAGON. TAT: TAT peptide. ZT: Zeitgeber time (i.e., time since lights were switched on). Black bars: intracerebroventricular infusion (5 μL/h from ZT0 to ZT6, with vehicle or peptides at 160 μM). * and †: P<0.05, Wilcoxon test with exact significance (Monte Carlo method) vs. vehicle (with correction for false-discovery rate) or vs. OX-DRAGON, respectively.
(§2) A biocompatible acrylic resin protection for was applied to the animal's head to protect the electrode and cannula connectors. After 1-2 weeks of post-operative recovery, the animals were connected via rotating electrical and fluid connectors respectively to thin electrical cables and to a catheter, itself connected to a precision pump for ICV infusion. The rotating connectors, cables and catheter were supported by a balanced arm to allow the animals full freedom of movement during the recordings, which were made with light: dark cycle of 12:12 hours. Wakefulness, non-REM sleep, and REM sleep were assessed based on EEG and EMG tracings with a technique previously published in detail (Bastianini et al., 2011).

OR1 [6] = molecular target: T2, OR1; assay: Intracellular Ca2+ response (Fluo-4 Direct Calcium Assay) in Neuro-2a cells expressing human OR1; type: cell-based; set-up: expressed in transfected cells; conditions: OX-DRAGON 8.5 μM vs OXA 14.8 μM; triplicate; normalized to maximal responses
Excerpt: (§3) Panel A: L, ladder DNA. Panel B: Data are reported as mean values and standard errors of the mean on triplicate measurements. The dots indicate the individual measures. […] The arrows indicate the time of the microinjection.
as §1

OR2 [7] = molecular target: T1, OR2; assay: cell-based
OX-KO mice [8] = assay: Wakefulness and sleep (EEG/EMG) after subcutaneous injection in OX-KO mice; type: in vivo, mouse; conditions: SC single injection at ZT0, 160 μM in 1 mL saline, vs vehicle; for time spent in REM sleep: light and dark period
Description: Wakefulness, non-REM sleep (NREM) and REM sleep are expressed as a percentage of the recording time. V: vehicle (saline). OX-D: OX-DRAGON. TAT: TAT peptide. ZT: Zeitgeber Time (i.e., time since lights were switched on). Each peptide was injected subcutaneously at the concentration of […] in 1 mL of vehicle at ZT0. *: P<0.05, Wilcoxon test with exact significance (Monte Carlo method) vs. vehicle with correction for false-discovery rate.
as §2
Experiments were performed as in step 3 above, except for the absence of the ICV cannula implant.

OR1 [9] = molecular target: T2, OR1; assay: Concentration-response reporter assay kit (Cayman n. 600240/600250) on HEK-293T cells, OR1; type: cell-based; set-up: host or cells: HEK-293T
WT Neuro-2a cells = assay: Immunofluorescence (anti-OXA 16-33 amide) internalization in WT Neuro-2a cells; type: cell-based, mouse; conditions: 74 μM, 1 hour, confocal microscopy
Excerpt: The panels show immunofluorescence imaging (rabbit anti-OXA 16-33 amide primary antibody, 1:200, Phoenix peptides #H-003-36) in Neuro-2a cells without expression of OR1 and OR2. […] The presence of diffuse TRITC fluorescence at the cytoplasmic level was confirmed in confocal microscopy (panel A). […] Calibration bars: 50 μm.
Because crossing the BBB requires the ability to cross endothelial cell membranes, these experiments support the ability of OX-DRAGON to cross the BBB and reach brain tissue after systemic administration.

OR2 [10] = molecular target: T1, OR2; assay: Intracellular Ca2+ response (Fluo-4 Direct Calcium Assay) in Neuro-2a cells expressing human OR2; type: cell-based; set-up: expressed in transfected cells; conditions: OX-DRAGON 8.5 μM vs OXA 14.8 μM; triplicate; normalized to maximal responses
Excerpt: as §3, §1

[11] = Solubility of the peptide; type: physicochemical
Description: Two batches of OX-DRAGON were synthesized by an external commercial entity (Genscript, (www.genscript.com), with purity ≥98.0% and net peptide content ≥68.0% (FIG. 2). The peptide is highly soluble […] in water, DPBS and DMSO.

| Substance | total duration of cataplexy-like episodes during the dark period (OX-KO mice [4]) | REM sleep time (OX-KO mice [5]) | non-REM sleep time (OX-KO mice [5]) | wakefulness time (OX-KO mice [5]) | time spent awake (OX-KO mice [8]) | time spent in non-REM sleep (OX-KO mice [8]) | time spent in REM sleep (OX-KO mice [8]) | further results |
| --- | --- | --- | --- | --- | --- | --- | --- | --- |
| PDCCRQKTCSCRLYELLHGAGNHAAGILTL [4-33 truncated sequence of OXA] |  |  |  |  |  |  |  | EC50 on OR2 relative to the native OXA protein (OR2 [1]): approximately 1/7; EC50 on OR1 relative to the native OXA protein (OR1 [2]): approximately 1/7 |
| YGRKKRRQRRRPDCCRQKTCSCRLYELLHGAGNHAAGILTL-NH2 (disulfide 14-20, 15-22) [OX-DRAGON] | significantly decrease | marked reduction in REM sleep time | decreased non-REM sleep time | increased wakefulness time | without exerting significant effects | without exerting significant effects | significantly decrease | intracellular [Ca2+] response of WT cells [3]: absence of significant effects; duration of individual cataplexy-like episodes (OX-KO mice [4]): no significant changes; number of cataplexy-like episodes (OX-KO mice [4]; P=0.034 one-tailed Wilcoxon): reduction in the number of cataplexy-like episodes; intracellular [Ca2+] response of OR1-expressing cells (OR1 [6]): close to the maximal ones evoked by OXA; EC50 (OR2 [7]): 10.5 nM; EC50 (OR1 [9]; HEK-293T cells, reporter assay, Hill equation fit): 67.7 nM; OR1/OR2 EC50 ratio (OR1 [9]; receptor selectivity, EC50 OR1 / EC50 OR2): 6.47 and 6.5; internalization into cells (intracellular/cytoplasmic fluorescence signal) (WT Neuro-2a cells): cytoplasmic signal of diffused fluorescence; also recorded: presence of TRITC fluorescence signal at the intracellular level; intracellular [Ca2+] response of OR2-expressing cells (OR2 [10]): close to the maximal ones evoked by OXA; solubility ([11]; in DMSO): 10000 µg/mL; solubility ([11]; in DPBS): 10000 µg/mL; solubility ([11]; in water): 10000 µg/mL |
| YGRKKRRQRRR [TAT, cell penetrating TAT peptide of type-1 human immunodeficiency virus (HIV), reference compound] | not replicated | significant reduction in REM sleep time during the dark period | did not evoke significant effects | did not evoke significant effects | did not result in significant effects | did not result in significant effects | did not result in significant effects |  |
